Target: purified human MMP-12 enzyme (Homo sapiens, UniProt P39900)
Experiment: MMP-12 FRET assay
Type: biochemical
Settings: substrate 20 μM, room temperature
How it was run: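 Enzyme pre-incubated 30 min at room temperature with compound in 50 mM HEPES pH 7.4, 100 mM NaCl, 5 mM CaCl2, 0.005% Brij-35, 10% DMSO final. Reaction started with 20 μM MCA-Pro-Leu-Gly-Leu-Dpa(DNP)-Ala-Arg, and initial cleavage rate read over 30 min (λex 325, λem 395 nm). IC50 from slope-factor inhibition fit.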

Sequence of purified human MMP-12 enzyme (P39900 106-470): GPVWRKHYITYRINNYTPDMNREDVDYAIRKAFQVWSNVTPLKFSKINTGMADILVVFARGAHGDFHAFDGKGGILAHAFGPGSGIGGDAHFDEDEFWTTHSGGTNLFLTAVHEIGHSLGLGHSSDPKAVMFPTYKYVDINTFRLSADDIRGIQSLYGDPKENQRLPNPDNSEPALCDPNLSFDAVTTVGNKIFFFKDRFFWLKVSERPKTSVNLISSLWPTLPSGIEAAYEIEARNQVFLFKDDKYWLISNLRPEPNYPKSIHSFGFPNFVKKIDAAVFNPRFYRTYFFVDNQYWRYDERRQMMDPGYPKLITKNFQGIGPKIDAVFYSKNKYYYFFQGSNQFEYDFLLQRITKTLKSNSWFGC

SMILES | IC50 [nM]
CCCN(Cc1cnc(-c2ccc3oc4cc(S(=O)(=O)N[C@H](C(=O)O)C(C)C)ccc4c3c2)s1)CC1CC1 [Compound 213, (S)-2-(8-(5-(((cyclopropylmethyl)(propyl)amino)methyl)thiazol-2-yl)dibenzo[b,d]furan-3-sulfonamido)-3-methylbutanoic acid] | 40
CC(C)[C@H](NS(=O)(=O)c1ccc2c(c1)oc1ccc(-c3ncc(Cn4cccn4)s3)cc12)C(=O)O [Compound 214, (S)-2-(8-(5-((1H-pyrazol-1-yl)methyl)thiazol-2-yl)dibenzo[b,d]furan-3-sulfonamido)-3-methylbutanoic acid] | 3.7
CC(C)[C@H](NS(=O)(=O)c1ccc2c(c1)oc1ccc(-c3ccc(-c4ccon4)s3)cc12)C(=O)O [Compound 216, (S)-2-(8-(5-(isoxazol-3-yl)thiophen-2-yl)dibenzo[b,d]furan-3-sulfonamido)-3-methylbutanoic acid] | 4.5
CC(C)[C@H](NS(=O)(=O)c1ccc2c(c1)oc1ccc(-c3nc4c(F)cccc4s3)cc12)C(=O)O [Compound 218, (S)-2-(8-(4-fluorobenzo[d]thiazol-2-yl)dibenzo[b,d]furan-3-sulfonamido)-3-methylbutanoic acid] | < 1.5
CC(C)[C@H](NS(=O)(=O)c1ccc2c(c1)oc1ccc(-c3nc4cc(F)ccc4s3)cc12)C(=O)O [Compound 219, (S)-2-(8-(5-fluorobenzo[d]thiazol-2-yl)dibenzo[b,d]furan-3-sulfonamido)-3-methylbutanoic acid] | < 1.5
CC(C)[C@H](NS(=O)(=O)c1ccc2c(c1)oc1ccc(-c3nc4cc(F)c(F)cc4s3)cc12)C(=O)O [Compound 220, (S)-2-(8-(5,6-difluorobenzo[d]thiazol-2-yl)dibenzo[b,d]furan-3-sulfonamido)-3-methylbutanoic acid] | < 1.5
CC(C)[C@H](NS(=O)(=O)c1ccc2c(c1)oc1ccc(-c3nc4ccc(OC(F)(F)F)cc4s3)cc12)C(=O)O [Compound 221, (S)-3-methyl-2-(8-(6-(trifluoromethoxy)benzo[d]thiazol-2-yl)dibenzo[b,d]furan-3-sulfonamido)butanoic acid] | 1.7
CC(C)[C@H](NS(=O)(=O)c1ccc2c(c1)oc1ccc(-c3nc4c(F)c(F)c(F)cc4s3)cc12)C(=O)O [Compound 222, (S)-3-methyl-2-(8-(4,5,6-trifluorobenzo[d]thiazol-2-yl)dibenzo[b,d]furan-3-sulfonamido)butanoic acid] | 4.9
COc1cccc2sc(-c3ccc4oc5cc(S(=O)(=O)N[C@H](C(=O)O)C(C)C)ccc5c4c3)nc12 [Compound 223, (S)-2-(8-(4-methoxybenzo[d]thiazol-2-yl)dibenzo[b,d]furan-3-sulfonamido)-3-methylbutanoic acid] | 13
CC(C)[C@H](NS(=O)(=O)c1ccc2c(c1)oc1ccc(-c3ncc(Cl)s3)cc12)C(=O)O [Compound 224, (S)-2-(8-(5-chlorothiazol-2-yl)dibenzo[b,d]furan-3-sulfonamido)-3-methylbutanoic acid] | < 1.5
COc1ccc2sc(-c3ccc4oc5cc(S(=O)(=O)N[C@H](C(=O)O)C(C)C)ccc5c4c3)nc2c1 [Compound 225, (S)-2-(8-(5-methoxybenzo[d]thiazol-2-yl)dibenzo[b,d]furan-3-sulfonamido)-3-methylbutanoic acid] | < 1.5
CC(C)[C@H](NS(=O)(=O)c1ccc2c(c1)oc1cc(-c3nc4ccccc4s3)ccc12)C(=O)O [Compound 226, (S)-2-(7-(benzo[d]thiazol-2-yl)dibenzo[b,d]furan-3-sulfonamido)-3-methylbutanoic acid] | 1.7
CCc1ccc(-c2ccc3c(c2)oc2cc(S(=O)(=O)N[C@H](C(=O)O)C(C)C)ccc23)s1 [Compound 229, (S)-2-(7-(5-ethylthiophen-2-yl)dibenzo[b,d]furan-3-sulfonamido)-3-methylbutanoic acid] | < 1.5
CCCc1ccc(-c2ccc3c(c2)oc2cc(S(=O)(=O)N[C@H](C(=O)O)C(C)C)ccc23)s1 [Compound 232, (S)-3-methyl-2-(7-(5-propylthiophen-2-yl)dibenzo[b,d]furan-3-sulfonamido)butanoic acid] | < 1.5
Cc1nc(CC(C)C)sc1-c1ccc2c(c1)oc1cc(S(=O)(=O)N[C@H](C(=O)O)C(C)C)ccc12 [Compound 235, (S)-2-(7-(2-isobutyl-4-methylthiazol-5-yl)dibenzo[b,d]furan-3-sulfonamido)-3-methylbutanoic acid] | 11
CC(C)[C@@H](NS(=O)(=O)c1ccc2oc3cc(-c4ccc(C(C)(C)C)o4)ccc3c2c1)C(=O)O [Compound 240, (R)-2-(7-(5-tert-butylfuran-2-yl)dibenzo[b,d]furan-2-sulfonamido)-3-methylbutanoic acid] | 19
CCCc1ccc(-c2ccc3c(c2)oc2ccc(S(=O)(=O)N[C@@H](C(=O)O)C(C)C)cc23)s1 [Compound 243, (R)-3-methyl-2-(7-(5-propylthiophen-2-yl)dibenzo[b,d]furan-2-sulfonamido)butanoic acid] | 1.5
CC(C)Cc1ncc(-c2ccc3c(c2)oc2ccc(S(=O)(=O)N[C@@H](C(=O)O)C(C)C)cc23)s1 [Compound 244, (R)-2-(7-(2-isobutylthiazol-5-yl)dibenzo[b,d]furan-2-sulfonamido)-3-methylbutanoic acid] | 3.4
Cc1nc(CC(C)C)sc1-c1ccc2c(c1)oc1ccc(S(=O)(=O)N[C@@H](C(=O)O)C(C)C)cc12 [Compound 245, (R)-2-(7-(2-isobutyl-4-methylthiazol-5-yl)dibenzo[b,d]furan-2-sulfonamido)-3-methylbutanoic acid] | 13
Cc1nc(CC(C)C)sc1-c1ccc2c(c1)oc1ccc(S(=O)(=O)N[C@H](C(=O)O)C(C)C)cc12 [Compound 247, (S)-2-(7-(2-isobutyl-4-methylthiazol-5-yl)dibenzo[b,d]furan-2-sulfonamido)-3-methylbutanoic acid] | 131

The remaining lines, values ahead:

IC50 [nM] | SMILES
2.4 | CC(C)[C@H](NS(=O)(=O)c1ccc2c(c1)oc1ccc(-c3ncc(CO)s3)cc12)C(=O)O [Compound 215, (S)-2-(8-(5-(hydroxymethyl)thiazol-2-yl)dibenzo[b,d]furan-3-sulfonamido)-3-methylbutanoic acid]
< 1.5 | CC(C)[C@H](NS(=O)(=O)c1ccc2c(c1)oc1ccc(-c3nc(Br)cs3)cc12)C(=O)O [Compound 217, (S)-2-(8-(4-bromothiazol-2-yl)dibenzo[b,d]furan-3-sulfonamido)-3-methylbutanoic acid]
6.1 | CC(C)[C@H](NS(=O)(=O)c1ccc2c(c1)oc1cc(-c3nc4ccccc4o3)ccc12)C(=O)O [Compound 227, (S)-2-(7-(benzo[d]oxazol-2-yl)dibenzo[b,d]furan-3-sulfonamido)-3-methylbutanoic acid]
< 1.5 | Cc1nc(-c2cnc(-c3ccc4c(c3)oc3cc(S(=O)(=O)N[C@H](C(=O)O)C(C)C)ccc34)s2)no1 [Compound 228, (S)-3-methyl-2-(7-(5-(5-methyl-1,2,4-oxadiazol-3-yl)thiazol-2-yl)dibenzo[b,d]furan-3-sulfonamido)butanoic acid]
< 1.5 | Cc1nc(C)c(-c2ccc3c(c2)oc2cc(S(=O)(=O)N[C@H](C(=O)O)C(C)C)ccc23)s1 [Compound 230, (S)-2-(7-(2,4-dimethylthiazol-5-yl)dibenzo[b,d]furan-3-sulfonamido)-3-methylbutanoic acid]
3.4 | CC(C)[C@H](NS(=O)(=O)c1ccc2c(c1)oc1cc(-c3ccc(C(C)(C)C)o3)ccc12)C(=O)O [Compound 231, (S)-2-(7-(5-tert-butylfuran-2-yl)dibenzo[b,d]furan-3-sulfonamido)-3-methylbutanoic acid]
< 1.5 | CC(C)[C@H](NS(=O)(=O)c1ccc2c(c1)oc1cc(-c3nc(C(F)(F)F)c(Cl)s3)ccc12)C(=O)O [Compound 233, (S)-2-(7-(5-chloro-4-(trifluoromethyl)thiazol-2-yl)dibenzo[b,d]furan-3-sulfonamido)-3-methylbutanoic acid]
< 1.5 | Cc1cnc(-c2ccc3c(c2)oc2cc(S(=O)(=O)N[C@H](C(=O)O)C(C)C)ccc23)s1 [Compound 234, (S)-3-methyl-2-(7-(5-methylthiazol-2-yl)dibenzo[b,d]furan-3-sulfonamido)butanoic acid]
12 | CC(C)[C@H](NS(=O)(=O)c1ccc2c(c1)oc1cc(-c3nc4ccc(C(F)(F)F)cc4s3)ccc12)C(=O)O [Compound 236, (S)-3-methyl-2-(7-(6-(trifluoromethyl)benzo[d]thiazol-2-yl)dibenzo[b,d]furan-3-sulfonamido)butanoic acid]
< 1.5 | CC(C)[C@H](NS(=O)(=O)c1ccc2c(c1)oc1cc(-c3nc4ccc(F)cc4s3)ccc12)C(=O)O [Compound 237, (S)-2-(7-(6-fluorobenzo[d]thiazol-2-yl)dibenzo[b,d]furan-3-sulfonamido)-3-methylbutanoic acid]
< 1.5 | CCc1ccc(-c2ccc3c(c2)oc2ccc(S(=O)(=O)N[C@@H](C(=O)O)C(C)C)cc23)s1 [Compound 239, (R)-2-(7-(5-ethylthiophen-2-yl)dibenzo[b,d]furan-2-sulfonamido)-3-methylbutanoic acid]
170 | CC(C)[C@H](NS(=O)(=O)c1ccc2oc3cc(-c4ccc(C(C)(C)C)o4)ccc3c2c1)C(=O)O [Compound 241, (S)-2-(7-(5-tert-butylfuran-2-yl)dibenzo[b,d]furan-2-sulfonamido)-3-methylbutanoic acid]
8.4 | CCc1ccc(-c2ccc3c(c2)oc2ccc(S(=O)(=O)N[C@H](C(=O)O)C(C)C)cc23)s1 [Compound 242, (S)-2-(7-(5-ethylthiophen-2-yl)dibenzo[b,d]furan-2-sulfonamido)-3-methylbutanoic acid]
6.2 | CCCc1ccc(-c2ccc3c(c2)oc2ccc(S(=O)(=O)N[C@H](C(=O)O)C(C)C)cc23)s1 [Compound 246, (S)-3-methyl-2-(7-(5-propylthiophen-2-yl)dibenzo[b,d]furan-2-sulfonamido)butanoic acid]
